From patent publication US20070042014A1, “Combination of a serotonin reuptake inhibitor and loxapine” (H. Lundbeck A/S, priority 2003, published 2007)

System: 5-HT levels in ventral hippocampus
Test: Microdialysis of brain serotonin (5-HT) levels in ventral hippocampus of rats
Assay type: in vivo, rat
Conditions: loxapine alone; male Wistar rats
Method: Male albino rats of a Wistar-derived strain (285-320 g; Harlan, Zeist, The Netherlands) were used for the experiments. Upon surgery, rats were housed individually in plastic cages (35×35×40 cm), and had free access to food and water. Animals were kept on a 12 h light schedule (light on 7:00 a.m.). The experiments are concordant with the declarations of Helsinki and were approved by the animal care committee of the faculty of mathematics and natural science of the University of Groningen.
Preceding surgery rats were anaesthetised using isoflurane (O2/N2O; 300/300 ml/min). Lidocaine-HCl, 10% (m/v) was used for local anaesthesia.
Rats were allowed to recover for at least 24 h. […]
Twenty-μl microdialysate samples were injected via an autoinjector (CMA/200 refrigerated microsampler, CMA, Sweden) onto a 100×2.0 mm C18 Hypersil 3 μm column (Bester, Amstelveen, the Netherlands) and separated with a mobile phase consisting of 5 g/L di-ammoniumsulfate, 500 mg/L EDTA, 50 mg/L heptane sulphonic acid, 4% methanol v/v, and 30 μl/L of triethylamine, pH 4.65 at a flow of 0.4 ml/min (Shimadzu LC-10 AD). 5-HT was detected amperometrically at a glassy carbon electrode at 500 mV vs Ag/AgCl (Antec Leyden, Leiden, The Netherlands). […]

## CN1CCN(C2=Nc3ccccc3Oc3ccc(Cl)cc32)CC1 [loxapine]
  effect on 5-HT levels in ventral hippocampus (microdialysis, % of control level): no significant effect
